Measured values: US8093272B2 (priority 2004, dated 2012)

Assays:
[1] = tested on: 5-HT-uptake; assay: Measurement of serotonin re-uptake in rat brain synaptosomes (P2 fraction, medulla+pons region); assay type: biochemical; conditions: synaptosomes from medulla+pons region of male rats' brains
Procedure: Measurement of Serotonin Re-Uptake
In order to carry out these in vitro studies, synaptosomes were freshly isolated from areas of rats' brains. In each case, what is known as a “P2” fraction, which was prepared in accordance with Gray and Whittaker's directions (E. G. Gray and V. P. Whittaker (1962) J. Anat. 76, 79-88), was used. For the 5HT-e, uptake these vesicular particles were isolated from the medulla+pons region of male rats' brains.
A detailed description of the method can be found in the literature (M. Ch. Frink, H.-H. Hennies, W. Englberger, M. Haurand and B. Wilffert (1996) Arzneim.-Forsch./Drug Res. 46 (III), 11, 1029-1036).

[2] = tested on: NA-uptake; assay: Measurement of noradrenalin re-uptake in rat brain synaptosomes (P2 fraction, hypothalamus); assay type: biochemical; conditions: synaptosomes from hypothalamus of male rats' brains
Procedure: Measurement of Noradrenalin Re-Uptake
In order to carry out these in vitro studies, synaptosomes were freshly isolated from rat brain areas. In each case, what is known as a “P2” fraction, which was prepared in accordance with Gray and Whittaker's directions (E. G. Gray and V. P. Whittaker (1962) J. Anat. 76, 79-88), was used. For the NA-uptake, uptake these vesicular particles were isolated from the hypothalamus of male rats' brains.
A detailed description of the method can be found in the literature (M. Ch. Frink, H.-H. Hennies, W. Englberger, M. Haurand and B. Wilffert (1996) Atzneim.-Forsch./Drug Res. 46 (III), 11, 1029-1036).

Cc1onc(-c2ccccc2Cl)c1C(=O)NC1CCC(c2cccc(F)c2)(N(C)C)CC1.Cl (single isomer, unassigned) [Example 119, 3-(2-chlorophenyl)-5-methylisoxazole-4-carboxylic acid [4-dimethyl-amino-4-(3-fluorophenyl)cyclohexyl]amide hydrochloride, polar diastereoisomer]
5-HT-uptake, 10 μM, % inhibition [1]: 86%
NA-uptake, 10 μM, % inhibition [2]: 59%

Cc1onc(-c2ccccc2Cl)c1C(=O)NC1CCC(c2cccc(F)c2)(N(C)C)CC1.Cl (single isomer, unassigned) [Example 118, 3-(2-chlorophenyl)-5-methylisoxazole-4-carboxylic acid [4-dimethyl-amino-4-(3-fluorophenyl)cyclohexyl]amide hydrochloride, non-polar diastereoisomer]
5-HT-uptake, 10 μM, % inhibition [1]: 50%
